In US9802937B2, “Substituted pyrazolo{4,3-D}pyrimidines as kinase inhibitors” (ORIGENIS GMBH, priority 2011, dated 2017):

biological target: T1, SYK kinase (Homo sapiens, UniProt P43405); experiment: SYK Assay (OMNIA KINASE ASSAY, SOX peptide fluorescence); format: biochemical; conditions: apparent Ki calculated from the IC50 using the Cheng-Prusoff equation; 1 mM ATP, 30° C.; read-out: SYK Activities: Ki
T1 construct: purchased Invitrogen, Carlsbad
Procedure: In the assay OMNIA® KINASE ASSAY by Invitrogen Corporation (Carlsbad) the effect of invention of a compound on the phosphorylation is determined by measurement of fluorescence intensity of a chelation-enhanced fluorophore called SOX. Upon phosphorylation of the peptide by the kinase of interest, Mg2+ is chelated to form a bridge between the SOX moiety and the phosphate group that is transferred to the specific tyrosine on the peptide. The fluorescence intensity is directly proportional to the amount of peptide phosphorylation.
To the wells of an 384 well small volume plate (Greiner, Frickenhausen) are added (i) the compound under test in 5% DMSO/distilled water (2 μl), (ii) 16 μl of the master mix containing ATP, DTT, Kinase Reaction Buffer, Omina Peptide Substrate Tyr 7 resulting in a final concentration of 1 mM ATP, 0.2 mM DTT and 10 μM Peptide Substrate.
The Master Mix and the assay plate was incubated to reaction temperature before the measurement (30° C.). The reaction was started with addition of (iii) 2 μl 4 μg/ml SYK kinase (Invitrogen, Carlsbad). During measurement fluorescence intensitiy readings were collected using a TECAN M1000 at a wavelength of λex 360/λem 485 nm every 30 s for 30 minutes. The reaction velocity was plotted versus the inhibitor concentration to determine the […] using XLFit 5.0 (IDBS, Guildford) to fit to a sigmoidal dose response curve, and the apparent Ki values were calculated from the IC50 using the Cheng-Prusoff equation (Cheng, Y.; Prusoff, W. H. Biochem. Pharmacol. 22, 3099-3108, 1973).

| Ki | Compound |
| --- | --- |
| 100 to 1000 nM | CSc1cccc(-c2nc(Nc3ccc(N4CCOCC4)cc3)c3[nH]ncc3n2)c1 [Example #224, 5-(3-(methylthio)phenyl)-N-(4-morpholinophenyl)-1H-pyrazolo[4,3-d]pyrimidin-7-amine] |
| 10 to 100 nM | COc1ccc(Nc2nc(-c3cccc(OC(F)(F)F)c3)nc3cn[nH]c23)cc1OC [Example #226, N-(3,4-dimethoxyphenyl)-5-(3-(trifluoromethoxy)phenyl)-1H-pyrazolo[4,3-d]pyrimidin-7-amine] |
| 10 to 100 nM | FC(F)(F)Oc1cccc(-c2nc(Nc3ccc(N4CCOCC4)cc3)c3[nH]ncc3n2)c1 [Example #227, N-(4-morpholinophenyl)-5-(3-(trifluoromethoxy)phenyl)-1H-pyrazolo[4,3-d]pyrimidin-7-amine] |
| 10 to 100 nM | COc1ccc(Nc2nc(-c3cccc(C(F)(F)F)c3)nc3cn[nH]c23)cc1OC [Example #228, N-(3,4-dimethoxyphenyl)-5-(3-(trifluoromethyl)phenyl)-1H-pyrazolo[4,3-d]pyrimidin-7-amine] |
| 10 to 100 nM | FC(F)(F)c1cccc(-c2nc(Nc3ccc(N4CCOCC4)cc3)c3[nH]ncc3n2)c1 [Example #229, N-(4-morpholinophenyl)-5-(3-(trifluoromethyl)phenyl)-1H-pyrazolo[4,3-d]pyrimidin-7-amine] |
| 10 to 100 nM | COc1ccc(Nc2nc(-c3cccc(Cl)c3)nc3cn[nH]c23)cc1OC [Example #230, 5-(3-chlorophenyl)-N-(3,4-dimethoxyphenyl)-1H-pyrazolo[4,3-d]pyrimidin-7-amine] |
| 10 to 100 nM | Clc1cccc(-c2nc(Nc3ccc(N4CCOCC4)cc3)c3[nH]ncc3n2)c1 [Example #231, 5-(3-chlorophenyl)-N-(4-morpholinophenyl)-1H-pyrazolo[4,3-d]pyrimidin-7-amine] |
| 10 to 100 nM | CSc1cccc(-c2nc(Nc3ccc4c(c3)NC(=O)CC4)c3[nH]ncc3n2)c1 [Example #236, 7-((5-(3-(methylthio)phenyl)-1H-pyrazolo[4,3-d]pyrimidin-7-yl)amino)-3,4-dihydroquinolin-2(1H)-one] |
| 10 to 100 nM | COC(=O)c1ccc(-c2nc(Nc3ccc(N4CCOCC4)cc3)c3[nH]ncc3n2)cc1 [Example #242, methyl 4-(7-((4-morpholinophenyl)amino)-1H-pyrazolo[4,3-d]pyrimidin-5-yl)benzoate] |
| < 10 nM | O=C(O)c1ccc(-c2nc(Nc3ccc(N4CCOCC4)cc3)c3[nH]ncc3n2)cc1 [Example #243, 4-(7-((4-morpholinophenyl)amino)-1H-pyrazolo[4,3-d]pyrimidin-5-yl)benzoic acid] |
| < 10 nM | COc1ccc(Nc2nc(-c3ccc(C(=O)O)cc3)nc3cn[nH]c23)cc1OC [Example #244, 4-(7-((3,4-dimethoxyphenyl)amino)-1H-pyrazolo[4,3-d]pyrimidin-5-yl)benzoic acid] |
| < 10 nM | Cc1nc2cc(Nc3nc(-c4cccs4)nc4cn[nH]c34)ccc2[nH]1 [Example #245, N-(2-methyl-1H-benzo[d]imidazol-5-yl)-5-(thiophen-2-yl)-1H-pyrazolo[4,3-d]pyrimidin-7-amine] |
| < 10 nM | CC(=O)N1CCN(c2ccc(Nc3nc(-c4cccc(S(C)(=O)=O)c4)nc4cn[nH]c34)cc2)CC1 [Example #246, 1-(4-(4-((5-(3-(methylsulfonyl)phenyl)-1H-pyrazolo[4,3-d]pyrimidin-7-yl)amino)phenyl)piperazin-1-yl)ethan-1-one] |
| 10 to 100 nM | COc1ccc(Nc2nc(-c3cccc(S(C)(=O)=O)c3)nc3cn[nH]c23)cc1OC [Example #249, N-(3,4-dimethoxyphenyl)-5-(3-(methylsulfonyl)phenyl)-1H-pyrazolo[4,3-d]pyrimidin-7-amine] |
| 10 to 100 nM | CS(=O)(=O)c1cccc(Nc2nc(-c3cccc(S(C)(=O)=O)c3)nc3cn[nH]c23)c1 [Example #253, N,5-bis(3-(methylsulfonyl)phenyl)-1H-pyrazolo[4,3-d]pyrimidin-7-amine] |
| < 10 nM | CC(=O)N1CCN(c2ccc(Nc3nc(-c4cnc5cc[nH]c5c4)nc4cn[nH]c34)cc2)CC1 [Example #256, 1-(4-(4-((5-(1H-pyrrolo[3,2-b]pyridin-6-yl)-1H-pyrazolo[4,3-d]pyrimidin-7-yl)amino)phenyl)piperazin-1-yl)ethan-1-one] |
| 10 to 100 nM | c1cc2ncc(-c3nc(Nc4ccc(N5CCOCC5)cc4)c4[nH]ncc4n3)cc2[nH]1 [Example #258, N-(4-morpholinophenyl)-5-(1H-pyrrolo[3,2-b]pyridin-6-yl)-1H-pyrazolo[4,3-d]pyrimidin-7-amine] |

| Ki | Compound |
| --- | --- |
| 100 to 1000 nM | Cc1nc2cc(Nc3nc(-c4cnc5cc[nH]c5c4)nc4cn[nH]c34)ccc2[nH]1 [Example #259, N-(2-methyl-1H-benzo[d]imidazol-5-yl)-5-(1H-pyrrolo[3,2-b]pyridin-6-yl)-1H-pyrazolo[4,3-d]pyrimidin-7-amine] |
| 10 to 100 nM | CN(C)S(=O)(=O)c1ccc(Nc2nc(-c3cccs3)nc3cn[nH]c23)cc1 [Example #260, N,N-dimethyl-4-((5-(thiophen-2-yl)-1H-pyrazolo[4,3-d]pyrimidin-7-yl)amino)benzenesulfonamide] |
| 100 to 1000 nM | c1cc(Nc2nc(-c3cccs3)nc3cn[nH]c23)cc(-n2nccn2)c1 [Example #262, N-(3-(2H-1,2,3-triazol-2-yl)phenyl)-5-(thiophen-2-yl)-1H-pyrazolo[4,3-d]pyrimidin-7-amine] |
| 100 to 1000 nM | c1csc(-c2nc(Nc3ccc(-n4nccn4)cc3)c3[nH]ncc3n2)c1 [Example #263, N-(4-(2H-1,2,3-triazol-2-yl)phenyl)-5-(thiophen-2-yl)-1H-pyrazolo[4,3-d]pyrimidin-7-amine] |
| 100 to 1000 nM | CN(C)S(=O)(=O)c1cccc(Nc2nc(-c3cccs3)nc3cn[nH]c23)c1 [Example #264, N,N-dimethyl-3-((5-(thiophen-2-yl)-1H-pyrazolo[4,3-d]pyrimidin-7-yl)amino)benzenesulfonamide] |
| 100 to 1000 nM | O=S(=O)(c1cccc(Nc2nc(-c3cccs3)nc3cn[nH]c23)c1)N1CCOCC1 [Example #266, N-(3-(morpholinosulfonyl)phenyl)-5-(thiophen-2-yl)-1H-pyrazolo[4,3-d]pyrimidin-7-amine] |
| 100 to 1000 nM | O=S(=O)(c1cccc(Nc2nc(-c3cccs3)nc3cn[nH]c23)c1)C(F)(F)F [Example #267, 5-(thiophen-2-yl)-N-(3-((trifluoromethyl)sulfonyl)phenyl)-1H-pyrazolo[4,3-d]pyrimidin-7-amine] |
| 10 to 100 nM | COc1ccc(Nc2nc(-c3ccc(F)cc3)nc3cn[nH]c23)cc1OC [Example #270, N-(3,4-dimethoxyphenyl)-5-(4-fluorophenyl)-1H-pyrazolo[4,3-d]pyrimidin-7-amine] |
| 100 to 1000 nM | COc1ccc(Nc2nc(-c3ccc(F)c(F)c3)nc3cn[nH]c23)cc1OC [Example #272, 5-(3,4-difluorophenyl)-N-(3,4-dimethoxyphenyl)-1H-pyrazolo[4,3-d]pyrimidin-7-amine] |
| 10 to 100 nM | Fc1ccc(-c2nc(Nc3ccc(N4CCOCC4)cc3)c3[nH]ncc3n2)cc1F [Example #273, 5-(3,4-difluorophenyl)-N-(4-morpholinophenyl)-1H-pyrazolo[4,3-d]pyrimidin-7-amine] |
| 100 to 1000 nM | COc1ccc(Nc2nc(-c3cc(F)cc(F)c3)nc3cn[nH]c23)cc1OC [Example #274, 5-(3,5-difluorophenyl)-N-(3,4-dimethoxyphenyl)-1H-pyrazolo[4,3-d]pyrimidin-7-amine] |
| < 10 nM | COc1ccc(Nc2nc(-c3ccc(F)cc3F)nc3cn[nH]c23)cc1OC [Example #285, 5-(2,4-difluorophenyl)-N-(3,4-dimethoxyphenyl)-1H-pyrazolo[4,3-d]pyrimidin-7-amine] |
| 10 to 100 nM | O=C1CCc2ccc(Nc3nc(-c4ccc5c(c4)NC(=O)CO5)nc4cn[nH]c34)cc2N1 [Example #287, 6-(7-((2-oxo-1,2,3,4-tetrahydroquinolin-7-yl)amino)-1H-pyrazolo[4,3-d]pyrimidin-5-yl)-2H-benzo[b][1,4]oxazin-3(4H)-one] |
| 10 to 100 nM | CS(=O)(=O)c1ccccc1Nc1nc(-c2cccs2)nc2cn[nH]c12 [Example #291, N-(2-(methylsulfonyl)phenyl)-5-(thiophen-2-yl)-1H-pyrazolo[4,3-d]pyrimidin-7-amine] |
| 100 to 1000 nM | CN(C)Cc1cccc(Nc2nc(-c3cccs3)nc3cn[nH]c23)c1 [Example #292, N-(3-((dimethylamino)methyl)phenyl)-5-(thiophen-2-yl)-1H-pyrazolo[4,3-d]pyrimidin-7-amine] |
| < 10 nM | CC(=O)N1CCN(c2ccc(Nc3nc(-c4ccc5c(c4)NC(=O)CO5)nc4cn[nH]c34)cc2)CC1 [Example #298, 6-(7-((4-(4-acetylpiperazin-1-yl)phenyl)amino)-1H-pyrazolo[4,3-d]pyrimidin-5-yl)-2H-benzo[b][1,4]oxazin-3(4H)-one] |
| 10 to 100 nM | COc1ccc(Nc2nc(-c3ccc4c(c3)NC(=O)CO4)nc3cn[nH]c23)cc1OC [Example #299, 6-(7-((3,4-dimethoxyphenyl)amino)-1H-pyrazolo[4,3-d]pyrimidin-5-yl)-2H-benzo[b][1,4]oxazin-3(4H)-one] |
